Source: US20210386505A1, “BACTERIAL BIOFILM STAINING DEVICE AND METHODS OF USE” (University of Utah Research Foundation, priority 2020, published 2021)

How the values were obtained:
[1] = test system: Pseudomonas aeruginosa (ATCC 27853) biofilms; assay: Transmission light photometry of MB bound to stained biofilms; format: cell-based; conditions: P. aeruginosa biofilm, 0.01% MB, 5 min stain, n=6
Experimental: (§1) Staphylococcus aureus (ATCC 6538) and Pseudomonas aeruginosa (ATCC 27853) biofilms were grown for the respective experiments (2 days) in a CBR 90 CDC biofilm reactor (BioSurface Technologies Corporation, Bozeman, Mont.) on either titanium, cobalt chromium, polyether ether ketone (PEEK), and polyethylene (PE) coupons using previously established methods. Briefly, a 0.5 McFarland standard (˜7.5×10^7 colony forming units (CFU)) was made from a 24 hour tryptic soy agar plate culture; 1 mL was then used to inoculate 500 mL of 100% Brain Heart Infusion (BHI) broth in the biofilm reactor. The reactor and its contents were incubated at 34° C. on a hot plate with baffle rotation for 24 hours. […] Quantification of biofilm bioburden was performed on representative coupons from each reactor by dispersing the respective biofilm into 2 mL of fresh 1× phosphate buffered saline (PBS) following an established protocol: sequentially vortexing for 1 minute, sonicating for 10 minutes and vortexing […]. The CFUs were calculated by 10-fold serial dilution plating and colony counting. […]
(§2) Transmission photometry was used to determine the amount of MB bound to biofilms grown and stained using the above protocols. […] The exposure was fixed for all images analyzed; ambient light sources were eliminated by darkening the room. […]

[2] = test system: Staphylococcus aureus (ATCC 6538) biofilms; assay: as above; format: cell-based; conditions: S. aureus biofilm, 0.01% MB, 5 min stain, n=6
Experimental: as §1, §2

S. aureus biofilms = assay: Visual MB staining of biofilms on orthopedic coupons, confirmed by SEM; format: cell-based, Staphylococcus aureus; conditions: S. aureus biofilms on titanium, cobalt chromium, polyethylene, PEEK coupons; dilute MB
Experimental: (§3) Staphylococcus aureus (ATCC 6538) and Pseudomonas aeruginosa (ATCC 27853) biofilms were grown for the respective experiments (2 days) in a CBR 90 CDC biofilm reactor (BioSurface Technologies Corporation, Bozeman, Mont.) on either titanium, cobalt chromium, polyether ether ketone (PEEK), and polyethylene (PE) coupons using previously established methods. Briefly, a 0.5 McFarland standard (˜7.5×10^7 colony forming units (CFU)) was made from a 24 hour tryptic soy agar plate culture; 1 mL was then used to inoculate 500 mL of 100% Brain Heart Infusion (BHI) broth in the biofilm reactor. The reactor and its contents were incubated at 34° C. on a hot plate with baffle rotation for 24 hours. After 24 hours, the reactor was flushed continuously with 10% BHI at 6.94 mL/min for the subsequent 24 hours. Prior to subsequent work, the biofilm coupons were removed aseptically and rinsed in PBS. Quantification of biofilm bioburden was performed on representative coupons from each reactor by dispersing the respective biofilm into 2 mL of fresh 1× phosphate buffered saline (PBS) following an established protocol: sequentially vortexing for 1 minute, sonicating for 10 minutes and vortexing […]. The CFUs were calculated by 10-fold serial dilution plating and colony counting. […]

P. aeruginosa biofilms = assay: as above; format: cell-based, Pseudomonas aeruginosa; conditions: P. aeruginosa biofilms on titanium, cobalt chromium, polyethylene, PEEK coupons; dilute MB
Experimental: as §3

CN(C)c1ccc2nc3ccc(=[N+](C)C)cc-3sc2c1 [MB, methylene blue]
number of MB molecules per CFU [1]: 2.84×10^7 molecules/CFU
number of MB molecules per CFU [2]: 6.95×10^6 molecules/CFU
visual staining of biofilm (S. aureus biofilms): visually turned blue
visual staining of biofilm (P. aeruginosa biofilms): visually turned blue
